Assay results taken from PubChem BioAssay (NCI).
Where “and” joins values, the source holds several entries; their conditions need not be identical. Equal values may be shown once.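 Briefly, cells in 96-well plates were exposed to five compound concentrations for 48 h, and endpoints were estimated by linear interpolation. GI50 = concentration required for 50% inhibition of growth. At the TGI there is no net growth.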

Key:
Test in all cases: growth of human tumour cells (NCI), 48 h
HL-60(TB) leukemia = system: HL-60(TB) leukemia
HCC-2998 colon = system: HCC-2998 colon
786-0 renal = system: 786-0 renal
IGROV1 ovarian = system: IGROV1 ovarian
NCI-H23 lung = system: NCI-H23 lung
OVCAR-3 ovarian = system: OVCAR-3 ovarian
LOX IMVI melanoma = system: LOX IMVI melanoma
KM12 colon = system: KM12 colon
MDA-MB-435 = system: MDA-MB-435
MCF7 breast = system: MCF7 breast

Structure (SMILES)	GI50 (HL-60(TB) leukemia)	TGI (HL-60(TB) leukemia)	GI50 (HCC-2998 colon)	TGI (HCC-2998 colon)	GI50 (786-0 renal)	TGI (786-0 renal)	GI50 (IGROV1 ovarian)	TGI (IGROV1 ovarian)	GI50 (NCI-H23 lung)	TGI (NCI-H23 lung)	GI50 (OVCAR-3 ovarian)	TGI (OVCAR-3 ovarian)	GI50 (LOX IMVI melanoma)	TGI (LOX IMVI melanoma)	GI50 (KM12 colon)	TGI (KM12 colon)	GI50 (MDA-MB-435)	TGI (MDA-MB-435)	GI50 (MCF7 breast)	TGI (MCF7 breast)
CCOC(=O)/C=C/C1=C(c2cccs2)c2ccccc2CC1	45 µM	> 100 µM	28.2 µM	64.7 µM	35.5 µM	> 100 µM	26.7 µM	94.9 µM	28.8 µM	89.4 µM	29.5 µM	> 100 µM	15.9 µM	30 µM	25.6 µM	90 µM	20.6 µM	51.3 µM	36.1 µM	> 100 µM
O=C1NC(=S)S/C1=C(/C=C(\CC(=O)c1ccccc1)c1ccc(Cl)cc1)c1ccccc1	21.7 µM	55.2 µM	18.2 µM	47.4 µM	46.9 µM	> 100 µM	41.6 µM	> 100 µM	21.8 µM	48.8 µM	24.2 µM	> 100 µM	37.6 µM	> 100 µM	28.2 µM	> 100 µM	37.2 µM	> 100 µM	19.8 µM	48.1 µM
COc1ccc2cc(-c3c(-c4ccncc4)nc(-c4ccc(S(C)(=O)=O)cc4C)n3C)ccc2c1	6.54 µM	21.7 µM	12 µM	> 25 µM	11.4 µM	> 25 µM	7.47 µM	> 25 µM	7.99 µM	> 25 µM	6.97 µM	> 23.5 µM	9.01 µM	> 25 µM	8.05 µM	> 25 µM	9.18 µM	> 25 µM	7.09 µM	> 18.4 µM
Cc1ccc(-c2csc(NC(=O)CN3CCN(c4cc5c(cc4F)c(=O)c(C(=O)O)cn5C4CC4)CC3)n2)cc1	1.47 µM	3.94 µM	2.04 µM	> 100 µM	0.5 µM	15.2 µM	0.739 µM	17 µM	0.39 µM	13.3 µM	0.457 µM	15.7 µM	0.482 µM	29.2 µM	0.508 µM	> 100 µM	1.77 µM	> 100 µM	0.638 µM	> 100 µM
O=C1c2cc(Cl)ccc2-c2c1c1ccc([N+](=O)[O-])cc1c(=O)n2CCCBr	1.26 µM	5.71 µM	42.6 µM	> 100 µM	2.62 µM	9.31 µM	5.77 µM	90.8 µM	8.27 µM	> 100 µM	36.6 µM	> 100 µM	2.37 µM	24 µM	20.8 µM	> 100 µM	14.9 µM	> 100 µM	4.61 µM	> 100 µM
COc1ccccc1/C=C/C(=O)c1ccccc1	2.18 µM	20.9 µM	17 µM	31.8 µM	18.3 µM	32.8 µM	2.2 µM	8.7 µM	15.2 µM	36.6 µM	5.92 µM	15.2 µM	2.06 µM	5.07 µM	4.04 µM	14.3 µM	5.16 µM	21.7 µM	1.56 µM	10.2 µM
Cc1cc2c(cc1Cl)SC1=NN(C)C(N(C)C)N1S2(=O)=O (stereo not drawn)	> 100 µM	> 100 µM	> 100 µM	> 100 µM	> 100 µM	> 100 µM	> 100 µM	> 100 µM	> 100 µM	> 100 µM	> 100 µM	> 100 µM	> 100 µM	> 100 µM	> 100 µM	> 100 µM	> 100 µM	> 100 µM	> 100 µM	> 100 µM
CCN(CC)C(=S)Oc1cc2oc(=O)cc(C)c2cc1Cl		> 100 µM		> 100 µM		> 100 µM		> 100 µM		> 100 µM		> 100 µM		> 100 µM		> 100 µM		> 100 µM		> 100 µM
COc1ccc(Cn2cc3c(c2)-c2oncc2CC3)cc1	1.72 µM	8.26 µM	5.98 µM	27.5 µM	13.2 µM	> 100 µM	4.56 µM	> 100 µM	5.85 µM	> 67.5 µM	2.61 µM	6.51 µM	6.99 µM	> 100 µM	2.62 µM	20.7 µM	0.635 µM	5.75 µM	3.07 µM	> 100 µM
C/C=C1\NC(=O)[C@H]2CSSCCC=C[C@H](CC(=O)N[C@H](C(C)C)C(=O)N2)OC(=O)[C@H](C(C)C)NC1=O	< 0.01 µM and 0.000299 µM		0.000813 µM	< 0.01 µM and 0.00448 µM	< 0.01 µM and 0.000554 µM		< 0.01 µM and 0.000421 µM		< 0.01 µM		< 0.01 µM	< 0.0108 µM and 0.00294 µM	< 0.01 µM and 0.000122 µM	< 0.01 µM and 0.00104 µM	< 0.01 µM		< 0.01 µM	< 0.0134 µM and 0.0207 µM and 0.125 µM	< 0.01 µM	0.0148 µM and 0.00981 µM and 0.0352 µM
O=c1cccc(C2CC(CO)C3CCCCN3C2)[nH]1 (stereo not drawn)		> 100 µM		> 100 µM		> 100 µM		> 100 µM		> 100 µM		> 100 µM		> 100 µM		> 100 µM		> 100 µM		> 100 µM
COc1cc2ncnc(Nc3ccc(F)c(Cl)c3)c2cc1NC(=O)/C=C/CN1CCCCC1	1.65 µM and 0.814 µM	3.64 µM and 3.11 µM	1.97 µM and 1.75 µM	4.38 µM and 4.29 µM	1.5 µM and 1.29 µM	2.98 µM and 2.75 µM		2.96 µM and 2.07 µM	2.65 µM and 2.54 µM	7.81 µM and > 8.79 µM	1.14 µM and 1.21 µM	2.45 µM and 3.24 µM	1.75 µM and 1.69 µM	3.27 µM and 3.24 µM	2.17 µM and 2.78 µM	4.88 µM and > 9.06 µM	1.6 µM and 1.46 µM	3.42 µM and 2.95 µM	2 µM and 2.03 µM	6.32 µM and 6.56 µM
NC(N)=NCCC1OC(=O)C2=C1c1c(O)ccc3nccc(c13)O2 (stereo not drawn)	> 100 µM	> 100 µM	> 100 µM	> 100 µM	> 100 µM	> 100 µM	> 100 µM	> 100 µM	> 100 µM	> 100 µM	> 100 µM	> 100 µM	> 100 µM	> 100 µM	> 100 µM	> 100 µM	> 100 µM	> 100 µM	> 100 µM	> 100 µM
CCOc1cc(/C=N\Nc2nnc(C)n2N)c(C)cc1N(CCCl)CCCl	0.351 µM	3.82 µM	1.45 µM	16 µM	1.51 µM	23.2 µM	1.96 µM	> 100 µM	0.8 µM	9.49 µM	0.737 µM	38.6 µM	0.349 µM	11.2 µM	0.897 µM	19.9 µM	0.5 µM	> 39.1 µM	0.391 µM	> 25.7 µM
COc1ccc(N2C(=O)[C@H]3CC(C)c4c([nH]c5ccccc45)[C@H]3C2=O)cc1 (stereo partly drawn)		20.1 µM		69 µM		16.4 µM		85.9 µM		29.4 µM		6.68 µM		63.8 µM		63.1 µM		2.3 µM		> 100 µM
Cc1sc2nc3c4ccccc4c(NCCCN(C)C)nn3c(=O)c2c1C	9.98 µM	25.8 µM	7.88 µM	20.7 µM	9.14 µM	21.9 µM	5.3 µM	24.6 µM	8.45 µM	23 µM	11.3 µM	24.3 µM	2 µM	6.85 µM	4.84 µM	17.7 µM	1.79 µM	3.74 µM	1.43 µM	5.63 µM
COc1cc(C(=O)Nc2cc3c(cc2Oc2cc(C)cc(C)c2)C(=O)N(C)[C@@H](CC(=O)N(C)O)C(=O)N3)c(Br)c(OC)c1OC	< 0.00333 µM	< 0.00333 µM	< 0.00333 µM	< 0.00333 µM	0.00824 µM	0.0429 µM	< 0.00333 µM	0.0104 µM	< 0.00333 µM	0.00543 µM	< 0.00333 µM	< 0.00333 µM	< 0.00333 µM	< 0.00333 µM	< 0.00333 µM	0.0394 µM	< 0.00333 µM	0.00351 µM	< 0.00333 µM	0.00821 µM
NC(=O)c1cc2c3ccccc3ccn2c1-c1ccccc1	0.242 µM	2.96 µM	0.542 µM	9.55 µM	0.0775 µM	13.6 µM	0.141 µM	33.4 µM	0.319 µM	14.4 µM	0.0272 µM	0.072 µM	0.0912 µM	16.2 µM	0.0396 µM	3.88 µM		> 100 µM	0.0597 µM	13.5 µM
